From patent US12343403B2, “Targeted ligand-payload based drug delivery for cell therapy” (Purdue Research Foundation, priority 2017, dated 2025)
Entries after “also recorded” stand apart in the source; their conditions may differ.

Tests used:
4M5.3FR+ human T cells = experiment: Cell viability assay, 4M5.3FR+ human T cells; format: cell-based
[1] = test system: 4M5.3FR+ population in a mixed human T cell culture; experiment: Killing of 4M5.3FR+ population in a mixed human T cell culture; format: cell-based
[2] = target: T1, FKBPFR3GS fusion receptor (Homo sapiens, UniProt P62942); experiment: Binding assay of ligand-dye on FKBPFR3GS (FF3) fusion receptor stably expressed on human T cell, flow cytometry
T1 construct: human FRa signal peptide (1-24 aa of human FRa) (N); expressed in transfected cells; host or cells: human T cells / Jurkat T cells, lentiviral transduction
T1 sequence (P62942 with tags, fused parts or gaps): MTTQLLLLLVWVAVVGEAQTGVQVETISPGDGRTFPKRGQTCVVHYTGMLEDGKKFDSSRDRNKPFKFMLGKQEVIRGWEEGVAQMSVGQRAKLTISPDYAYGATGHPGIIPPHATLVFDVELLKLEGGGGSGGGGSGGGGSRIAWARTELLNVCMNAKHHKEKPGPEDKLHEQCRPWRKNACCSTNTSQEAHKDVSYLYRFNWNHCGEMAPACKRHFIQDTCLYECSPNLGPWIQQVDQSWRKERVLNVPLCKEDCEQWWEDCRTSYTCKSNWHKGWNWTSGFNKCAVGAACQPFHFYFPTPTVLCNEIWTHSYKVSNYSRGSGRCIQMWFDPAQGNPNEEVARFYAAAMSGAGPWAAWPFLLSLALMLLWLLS
Protocol: For binding assay, cells were incubated with ligand-dye alone or with ligand-dye and free ligands (100×, preincubated for 30 min) for 30 min, at 4 degree. Cells were washed 3 times after incubation, and re-suspended in 2% FBS PBS, 7-AAD were added to gate out the dead cells. […] FRET is visualized by the loss of intensity of FA-Rhodamine as its energy transferred to FA-OTL38 on the same or nearby receptor, detected by BD Fortessa flow cytometer. Results were analyzed using Flow Jo software.
For binding assay, cells were incubated with ligand-dye alone or with ligand-dye and free ligands (100×, preincubated for 30 min) for 30 min, at 4 degree. Cells were washed 3 times after incubation, and re-suspended in 2% FBS PBS, 7-AAD were added to gate out the dead cells. BD Fortessa flow cytometer were used. Results were analyzed using FlowJo software.

[3] = target: T2, FKBPFR1GS fusion receptor (Homo sapiens, UniProt P62942); experiment: Interference/FRET binding assay in FKBPFR1GS (FF1) fusion receptor Jurkat cells
T2 construct: human FRa signal peptide (1-24 aa of human FRa) (N); expressed in transfected cells; host or cells: Jurkat cells, lentiviral transduction
T2 sequence (P62942 with tags, fused parts or gaps): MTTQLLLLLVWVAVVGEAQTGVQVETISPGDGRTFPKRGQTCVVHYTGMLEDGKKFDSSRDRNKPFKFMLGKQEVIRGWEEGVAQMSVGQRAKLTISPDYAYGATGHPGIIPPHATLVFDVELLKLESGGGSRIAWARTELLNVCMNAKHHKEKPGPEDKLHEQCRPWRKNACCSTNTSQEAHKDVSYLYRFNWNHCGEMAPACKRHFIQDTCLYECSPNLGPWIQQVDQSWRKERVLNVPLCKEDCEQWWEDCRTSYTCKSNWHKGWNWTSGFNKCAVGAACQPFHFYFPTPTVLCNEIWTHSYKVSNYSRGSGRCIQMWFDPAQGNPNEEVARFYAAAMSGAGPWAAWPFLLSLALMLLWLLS
Protocol: Cells were washed 3 times after incubation, and re-suspended in 2% FBS PBS, 7-AAD were added to gate out the dead cells. […] Results were analyzed using Flow Jo software. […]

FF3+ human T cell = settings: 100× preincubation with FA
Protocol: Cells were seeded to 96 well plate and incubated with different concentration of certain ligand-cytotoxic drug for 2 h, with or without 100× preincubation of the free ligand competition. After 2 h incubation, cells were washed by warm medium 3 times and replenished with fresh medium. After 72 h, cell number were tested by CellTiter-Glo® assay (G7570, Promega) or quantified by ligand-dye staining of receptor positive cell.

FKBP51 = target: T3, FKBP51 (Homo sapiens, UniProt Q13451); settings: read-out: KD FK506; cited from earlier work
T3 sequence (Q13451 1-457): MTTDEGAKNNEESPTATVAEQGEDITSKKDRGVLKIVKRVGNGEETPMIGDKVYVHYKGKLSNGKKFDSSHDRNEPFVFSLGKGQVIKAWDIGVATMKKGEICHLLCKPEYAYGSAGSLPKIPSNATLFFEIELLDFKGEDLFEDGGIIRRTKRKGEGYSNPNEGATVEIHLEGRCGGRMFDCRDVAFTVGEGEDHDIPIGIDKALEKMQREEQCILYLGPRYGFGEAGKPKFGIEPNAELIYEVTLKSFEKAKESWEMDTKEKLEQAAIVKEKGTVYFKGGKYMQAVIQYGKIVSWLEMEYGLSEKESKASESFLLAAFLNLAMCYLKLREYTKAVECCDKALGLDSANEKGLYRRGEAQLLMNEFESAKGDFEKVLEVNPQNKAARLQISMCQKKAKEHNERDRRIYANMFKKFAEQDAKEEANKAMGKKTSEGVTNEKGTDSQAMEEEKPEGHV

[4] = test system: FMC63+4M5.3FR+hT cell towards Raji cell; experiment: CAR T cell lysis effect, FMC63+4M5.3FR+ hT cell towards Raji cell; format: cell-based, human
Protocol: 1×10^5 CAR T and certain number of Raji cell were co-incubated in 96 well plate, according to the E:T ratio, with or without the treatment drug. After 24 h, 100 ul supernatant were taken out for LDH assay. Lysis percentage were calculated as (treatment group-CAR T only)/(maximum lysis-CAR T only) %

[5] = scFv against FITC; cited from earlier work

COc1cc2cc(c1Cl)N(C)C(=O)C[C@H](OC(=O)[C@H](C)N(C)C(=O)CCC(C)(C)SSCCNC(=S)Nc1cccc3c1C(=O)OC31c3ccc(O)cc3Oc3cc(O)ccc31)C1(C)O[C@H]1[C@H](C)C1CC(O)(NC(=O)O1)[C@H](OC)/C=C\C=C(\C)C2 (stereo partly drawn) [FITC-DM4]
killing of 4M5.3FR+ human T cells (4M5.3FR+ human T cells; 2 h incubation, read after 72 h): specifically kill
killing of 4M5.3FR+ population in mixed human T cell culture ([1]; 4M5.3FR+ cells, increasing concentration): specifically kill the 4M5.3FR+ population
killing of 4M5.3FR- cells in mixed human T cell culture ([1]; 4M5.3FR- cells, high concentration, bystander effect): killed also through released drugs and bystander effect at high concentration

COc1ccc(CCC(OC(=O)C2CCCCN2C(=O)C(=O)C(C)(C)C)c2cccc(NC(=O)CCC(=O)NCCOCCOCCOCCNC(=S)Nc3ccc(-c4c5ccc(=O)cc-5oc5cc(O)ccc45)c(C(=O)O)c3)c2)cc1OC (stereo not drawn) [SLF-FITC]
Kd ([2]; FKBPFR3GS fusion receptor stably expressed on human T cell, 30 min, 4 degree): 62 nM

CO[C@H]1C[C@@H](C)[C@@]2(O)O[C@H]1[C@H](OC)C[C@H](C)C/C(C)=C\[C@H](C/C=C/c1ccc(C(=O)NCCCOCCOCCOCCCNC(=O)c3ccc(-c4c5ccc(=[N+](C)C)cc-5oc5cc(N(C)C)ccc45)c(C(=O)O)c3)cc1)C(=O)C[C@H](O)[C@@H](C)[C@@H](/C(C)=C/[C@@H]1CC[C@@H](O)[C@H](OC)C1)CC(=O)C1CCCCN1C(=O)C2=O (stereo partly drawn) [FK506-Rhodamine]
binding of FK506-Rhodamine in the presence of FA ([2]; FF3 (3GS linker) compared to FF1, 10 nM FA): preserves the binding

Nc1nc(=O)c2nc(CNc3ccc(C(=O)N[C@@H](CCC(=O)O)C(=O)O)cc3)cnc2[nH]1 [Folate acid]
concentration at which Folate acid totally abolishes FK506-Rhodamine binding ([3]; FKBPFR1GS fusion protein): 50 nM
concentration at which Folate acid blocks the binding of FK506-Rhodamine ([3]; FKBPFR1GS fusion protein, lowest blocking concentration): ≥ 10 pM
competition of FA-Tubulysin killing effect by FA (FF3+ human T cell): blocks the effect

FITC sodium
competition of receptor mediated killing effect by free FITC sodium (4M5.3FR+ human T cells; 100× preincubation): blocks the receptor mediated killing effect

OTL38
FRET: FK506-Rhodamine intensity after binding to OTL38 ([3]; FKBPFR1GS jurkat cell, FK506-Rhodamine donor, OTL38 acceptor): decreased FK506-Rhodamine intensity

CCC(C)(C)C(=O)C(=O)N1CCCC[C@H]1C(=O)O[C@H](CCc1ccc(OC)c(OC)c1)c1cccc(OCC(=O)O)c1 [SLF]
times lower binding affinity to FKBPFR fusion receptor compared to parent ligand FK506 ([2]; SLF vs FK506): 10 times
competition of SLF-FITC binding by free SLF ([2]; free SLF 100×, preincubation): blocks SLF-FITC binding; also recorded: blocks this binding

C=CC[C@@H]1/C=C(\C)C[C@H](C)C[C@H](OC)[C@H]2O[C@@](O)(C(=O)C(=O)N3CCCC[C@H]3C(=O)O[C@H](/C(C)=C/[C@@H]3CC[C@@H](O)[C@H](OC)C3)[C@H](C)[C@@H](O)CC1=O)[C@H](C)C[C@@H]2OC [FK506]
Kd (FKBP51): ~104 nM

Cc1nc(Nc2ncc(C(=O)Cc3c(C)cccc3Cl)s2)cc(N2CCN(CCOC(=O)OCCSSCCNC(=S)Nc3ccc4c(c3)C(=O)OC43c4ccc(O)cc4Oc4cc(O)ccc43)CC2)n1 [FITC-Dasatinib]
lysis effect of FMC63+4M5.3FR+ hT cell towards Raji cell [4]: decrease the lysis effect

B1: 4M5.3: scFv against FITC, SEQ ID NO:19 (protein)
scFv: DVVMTQTPLSLPVSLGDQASISCRSSQSLVHSNGNTYLRWYLQKPGQSPKVLIYKVSNRVSGVPDRFSGSGSGTDFTLKINRVEAEDLGVYFCSQSTHVPWTFGGGTKLEIKSSADDAKKDAAKKDDAKKDDAKKDGGVKLDETGGGLVQPGGAMKLSCVTSGFTFGHYWMNWVRQSPEKGLEWVAQFRNKPYNYETYYSDSVKGRFTISRDDSKSSVYLQMNNLRVEDTGIYYCTGASYGMEYLGQGTSVTVSS
modifications: A synthetic scFv against FITC 4M5.3(Kd = 200pM)
Kd [5]: 0.2 nM
